From publication PMC8600648 (ACS Omega, 2021)

Target: TMV-CP (tobacco mosaic virus coat protein) (Tobacco mosaic virus (vulgare), UniProt P69687)
Test: microscale thermophoresis
Format: binding

Sequence of TMV-CP (tobacco mosaic virus coat protein) (P69687 2-159 limits assumed): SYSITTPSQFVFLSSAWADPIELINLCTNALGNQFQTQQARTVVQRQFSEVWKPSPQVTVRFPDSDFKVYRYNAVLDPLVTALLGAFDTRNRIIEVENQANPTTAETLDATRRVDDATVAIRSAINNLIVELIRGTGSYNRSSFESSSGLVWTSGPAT

SMILES: O=c1c(O)c(-c2cc(O)c(O)c(O)c2)oc2cc(O)cc(O)c12 [myricetin, 3,5,7-trihydroxy-2-(3′,4′,5′-trihydroxyphenyl)-4H-chromen-4-one]
- Kd: 62.2 ± 22.2 µM
